Source: patent US12582618B2, “Bis-biguanide compounds, pharmaceutical compositions and uses in managing cancer” (Emory University, priority 2019, dated 2026)

Tested on: leader cell sub-population (H1299 leader cells)
Assay: drug screening of rare lung cancer cells isolated by spatiotemporal genomic and cellular analysis (SaGA)
Assay type: cell-based, human
Conditions: rare lung cancer cells identified by SaGA, then drug screening; see FIG. 2A
From the text: See e.g., Burrell et al., Nature, 2013, 501:338-345. Spatiotemporal genomic and cellular analysis (SaGA) is a technique which involves a combination of microscopy and genomics to isolate rare cells. See Konen et al. Nat Comm, 2017, 8:15078. Dendra2 is a photoconvertible fluorophore which emits green fluorescence. However, when excited by 405 nm light, green fluorescence is converted to red fluorescence due to cleavage of a histidine. Therefore, with single cell precision, any cancer cell expressing Dendra2 can be optically highlighted (turned red) using a point scanning confocal microscope. A region of interest is drawn around the cell(s) of interest, based upon by transmitted light or fluorescent protein tags. This region can be exposed to a 405 nm laser, resulting in near instantaneous photoconversion of Dendra2, and photomarking the cell red. Single cells can be photoconverted, without inducing any measurable photoconversion of neighboring cells. Cells are extracted from the 3-D environment using dispase for 15 minutes (collagenase for collagen). Cells are then sorted to separate red photoconverted cells from green cells using a FACS. Isolated cells are grown in culture using standard cell culture techniques. Spatiotemporal genomic and cellular analysis (SaGA) was used to identify rare lung cancer cells which were then subject to drug screening.

Compound: CCCCC(CC)CNC(=N)NC(=N)NCCCCCCNC(=N)NC(=N)NCC(CC)CCCC (stereo not shown) [alexidine, 1,1′-(hexane-1,6-diyl)bis(5-(2-ethylhexyl)biguanidine)]
- effect on metastasis / invasive cell pack: disrupt metastasis by targeting a rare cell type within the invasive cell pack
